Reference: patent US9040080B2, “Processing of heat-sensitive active agents” (SOUTHWEST RESEARCH INSTITUTE, priority 2008, dated 2015)

Columns and labels:
[1] = HPLC analysis of thermal degradation of brinzolamide in extruded fibers; assay type: physicochemical; details: PLGA microspheres (40%) extruded with poly(caprolactone) (60%)
From the text: The active ingredient brinzolamide was microencapsulated in two poly(lactic acid-co-glycolic acid) (PLGA) copolymers, one having a molar ratio of 75/25 (PLGA7525) and one having a molar ratio of 85/15 (PLGA 8515) as discussed further below. The theoretical amount of active agent was 40% by weight in each microencapsulation formulation. The two microsphere formulations were extruded with a lower melting point polymer, poly(caprolactone) (CAPA686), wherein the microspheres were present at 40% by weight and the poly(caprolactone) was present at 60% by weight, forming fibers incorporating the microcapsules therein.

[2] = Drug degradation on direct melt processing (extrusion) with PLGA; assay type: physicochemical; details: directly melt processed by extrusion with poly(lactic acid-co glycolic acid) at 75:25 and 85:15 molar ratios, 140° C.-160° C.
Method: For example, about 5% drug degradation was found when brinzolamide, having a melting point in the range of 130-131° C. was directly melt processed by extrusion with poly(lactic acid-co glycolic acid) at 75:25 and 85:15 molar ratios. Melt processing temperatures of the poly(lactic-co glycolic acid) were in the range of 140° C.-160° C.

For `CCN[C@H]1CN(CCCOC)S(=O)(=O)c2sc(S(N)(=O)=O)cc21` [brinzolamide, (R)-(+)-4-Ethylamino-2-(3-methoxypropyl)-3,4-dihydro-2H-thieno[3,2-e]-1,2-thiazine-6-sulfonamide-1,1-dioxide], which “thermal degradation of brinzolamide in the fibers” value [1] is on record?
The value was “absence of thermal degradation”.

What about the drug degradation [2] of the same compound?
The drug degradation was “about 5%”.
